Assay [1] has as its target T1, Coagulation factor X (Homo sapiens, UniProt P00742). Nature of the assay: Inhibitory activity against Coagulation factor X.
Target sequence in this assay (P00742 41-179 limits assumed): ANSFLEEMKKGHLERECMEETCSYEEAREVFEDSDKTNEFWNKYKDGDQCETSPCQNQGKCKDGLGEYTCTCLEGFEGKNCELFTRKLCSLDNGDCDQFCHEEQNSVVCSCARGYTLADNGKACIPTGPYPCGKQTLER
Target sequence in this assay (P00742 235-488 limits assumed): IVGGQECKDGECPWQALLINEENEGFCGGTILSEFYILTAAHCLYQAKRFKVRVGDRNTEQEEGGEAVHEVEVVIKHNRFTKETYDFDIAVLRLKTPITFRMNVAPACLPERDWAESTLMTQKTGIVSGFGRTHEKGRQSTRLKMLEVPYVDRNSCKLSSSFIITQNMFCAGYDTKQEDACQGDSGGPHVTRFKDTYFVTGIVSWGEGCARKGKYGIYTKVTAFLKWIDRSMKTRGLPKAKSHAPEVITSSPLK
In assay [2] the target is T2, Plasminogen (Homo sapiens, UniProt P00747). The assay is described as follows: In vitro inhibitory activity against plasmin; inactive.
Assay [3] concerns the target T3, Prothrombin (Homo sapiens, UniProt P00734). The assay is described as follows: In vitro inhibitory activity against Thrombin (FIIa).
Assay [4] addresses T4, Serine protease 1 (Homo sapiens, UniProt P07477). The assay is described as follows: In vitro inhibitory activity against Human trypsin; inactive.
Assay [5] has as its target T4, Serine protease 1. Nature of the assay: In vitro inhibitory activity against Human trypsin.
Assay [6] concerns the target T2, Plasminogen. The assay is described as follows: In vitro inhibitory activity against plasmin.
In assay [7] the target is T1, Coagulation factor X. The assay is described as follows: In vitro inhibitory activity against prothrombinase (PTase) complex.
Target sequence in this assay (P00742 whole entry): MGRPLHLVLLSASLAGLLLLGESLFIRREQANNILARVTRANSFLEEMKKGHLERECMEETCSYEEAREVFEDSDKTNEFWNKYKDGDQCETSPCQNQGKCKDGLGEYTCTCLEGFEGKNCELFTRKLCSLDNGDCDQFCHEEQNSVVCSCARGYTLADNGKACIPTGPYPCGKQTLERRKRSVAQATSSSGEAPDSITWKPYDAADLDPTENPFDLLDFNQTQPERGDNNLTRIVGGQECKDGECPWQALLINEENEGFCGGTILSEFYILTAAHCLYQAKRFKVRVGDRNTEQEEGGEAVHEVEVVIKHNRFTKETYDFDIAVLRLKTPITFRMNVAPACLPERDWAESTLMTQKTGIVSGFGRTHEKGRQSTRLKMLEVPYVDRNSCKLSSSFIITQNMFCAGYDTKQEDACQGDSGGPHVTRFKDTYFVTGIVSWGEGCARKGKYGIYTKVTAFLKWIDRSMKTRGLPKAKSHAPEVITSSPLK
Assay [8] deals with T3, Prothrombin. The assay is described as follows: In vitro inhibitory activity against Thrombin (FIIa); inactive.

The term IC50 denotes the concentration needed to halve the response being measured. Read a low IC50 as greater potency.

T4 sequence (P07477 whole entry): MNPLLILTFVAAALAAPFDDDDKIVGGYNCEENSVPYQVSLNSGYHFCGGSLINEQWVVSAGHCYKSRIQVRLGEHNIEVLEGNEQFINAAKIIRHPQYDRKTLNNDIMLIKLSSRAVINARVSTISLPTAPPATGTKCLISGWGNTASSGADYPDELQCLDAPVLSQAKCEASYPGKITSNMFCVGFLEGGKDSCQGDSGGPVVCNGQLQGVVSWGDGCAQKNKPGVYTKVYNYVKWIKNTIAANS
T2 sequence (P00747 97-580 limits assumed): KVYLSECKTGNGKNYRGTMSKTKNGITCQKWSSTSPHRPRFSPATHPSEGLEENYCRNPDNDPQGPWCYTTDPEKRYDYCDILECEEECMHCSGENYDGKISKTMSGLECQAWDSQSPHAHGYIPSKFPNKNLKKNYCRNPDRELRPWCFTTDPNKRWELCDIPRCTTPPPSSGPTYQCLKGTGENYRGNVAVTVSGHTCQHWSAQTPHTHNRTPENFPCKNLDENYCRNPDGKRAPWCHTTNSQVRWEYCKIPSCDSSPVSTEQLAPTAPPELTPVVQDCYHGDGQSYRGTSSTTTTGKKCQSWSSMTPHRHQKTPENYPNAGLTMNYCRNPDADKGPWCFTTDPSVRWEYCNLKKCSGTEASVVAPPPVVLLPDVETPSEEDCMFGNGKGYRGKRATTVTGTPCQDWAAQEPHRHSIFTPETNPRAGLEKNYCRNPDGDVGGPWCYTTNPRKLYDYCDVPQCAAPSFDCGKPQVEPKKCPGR
T2 sequence (P00747 581-810 limits assumed): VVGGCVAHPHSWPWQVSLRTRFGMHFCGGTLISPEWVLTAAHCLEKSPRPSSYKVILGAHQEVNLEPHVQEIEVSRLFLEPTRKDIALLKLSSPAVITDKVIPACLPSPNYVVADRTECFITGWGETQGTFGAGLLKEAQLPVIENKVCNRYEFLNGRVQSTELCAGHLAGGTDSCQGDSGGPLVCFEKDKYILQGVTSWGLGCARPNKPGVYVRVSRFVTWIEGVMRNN

For `CCOC(=O)CNC(=O)C(=O)[C@H](CC1CCCCC1)NC(=O)CN(C)C(=O)[C@@H](CCCN=C(N)N)NS(=O)(=O)Cc1ccccc1`, the IC50 is 2.13 nM against Coagulation factor X [1], “Not Active” against Plasminogen [2], over 2500 nM against Prothrombin [3] and “Not Active” at Serine protease 1 [4].
`CN(CC(=O)N[C@@H](CC1CCCCC1)C(=O)C(=O)NCc1ccc2c(c1)OCO2)C(=O)[C@@H](CC/N=C(\N)N[N+](=O)[O-])NS(=O)(=O)Cc1ccccc1`: the IC50 on Coagulation factor X [1] was 46.4 nM; at Plasminogen [2], “Not Active”; against Prothrombin [3], over 2500 nM; against Serine protease 1 [4] it was “Not Active”.
Turning to `CN(CC(=O)N[C@@H](CC1CCCCC1)C(=O)C(=O)NCCc1ccccc1)C(=O)[C@@H](CCCN=C(N)N)NS(=O)(=O)Cc1ccccc1`, the IC50 was 13.2 nM against Coagulation factor X [1], “Not Active” at Plasminogen [2], 2210 nM at Prothrombin [3] and over 2500 nM on Serine protease 1 [5].
For the compound `CCCCCNC(=O)C(=O)[C@H](CC1CCCCC1)NC(=O)CN(C)C(=O)[C@@H](CCCN=C(N)N)NS(=O)(=O)Cc1ccccc1`, the IC50 against Coagulation factor X [1] is 1.87 nM; on Plasminogen [6], over 2500 nM; against Prothrombin [3] it was 3830 nM; at Serine protease 1 [5], 163 nM.
Turning to `CCOC(=O)CNC(=O)C(=O)[C@H](Cc1ccccc1)NC(=O)CN(C)C(=O)[C@@H](CCCN=C(N)N)NS(=O)(=O)Cc1ccccc1`, the IC50 against Coagulation factor X [1] is 6.6 nM; on Plasminogen [2], “Not Active”; against Coagulation factor X [7] it was 25.1 nM; on Prothrombin [3] it was over 2500 nM; on Serine protease 1 [5], over 2500 nM.
For `CN(CC(=O)N[C@H]1CCCC(C(=N)N)C1O)C(=O)[C@@H](CCCN=C(N)N)NS(=O)(=O)Cc1ccccc1` (some centres undefined), the IC50 on Coagulation factor X [1] was 0.86 nM; against Plasminogen [6] it was 1200 nM; against Coagulation factor X [7], 3.4 nM; against Prothrombin [3] it was over 2500 nM; at Serine protease 1 [5] it was 74.7 nM.
For the compound `CN(CC(=O)N[C@@H](CC1CCCCC1)C(=O)C(=O)NCc1ccccc1)C(=O)[C@@H](CCCN=C(N)N)NS(=O)(=O)Cc1ccccc1`, the IC50 against Coagulation factor X [1] is 3.26 nM; on Plasminogen [6], over 2500 nM; against Prothrombin [3], 1960 nM; on Serine protease 1 [5], 2500 nM.
`CCOC(=O)CNC(=O)C(=O)[C@H](Cc1ccc(O)cc1)NC(=O)CN(C)C(=O)[C@@H](CCCN=C(N)N)NS(=O)(=O)Cc1ccccc1.O=C(O)C(F)(F)F`: the IC50 on Coagulation factor X [1] is 7.63 nM; on Plasminogen [2], “Not Active”; at Coagulation factor X [7], 29.2 nM; on Prothrombin [3], over 2500 nM; at Serine protease 1 [4], “Not Active”.
Consider `CCOC(=O)CNC(=O)C(=O)[C@H](Cc1ccc(OC(C)(C)C)cc1)NC(=O)CN(C)C(=O)[C@@H](CCCN=C(N)N)NS(=O)(=O)Cc1ccccc1.O=C(O)C(F)(F)F`, for which the IC50 was 246 nM at Coagulation factor X [1], over 2500 nM against Plasminogen [6], “Not Active” against Prothrombin [8] and “Not Active” against Serine protease 1 [4].
`CN(CC(=O)N[C@@H](Cc1ccccc1)C(=O)C(=O)NCC(=O)NCCc1ccccc1)C(=O)[C@@H](CCCN=C(N)N)NS(=O)(=O)Cc1ccccc1.O=C(O)C(F)(F)F`: the IC50 against Coagulation factor X [1] was 7.89 nM; at Plasminogen [2], “Not Active”; against Coagulation factor X [7] it was 25.9 nM; against Prothrombin [3], over 2500 nM; at Serine protease 1 [4], “Not Active”.

(Values after ChEMBL document CHEMBL1132777, “Novel, potent and selective chimeric FXa inhibitors featuring hydrophobic P1-ketoamide moieties” (Bioorg Med Chem Lett, 2000).)
